{
  "source": "patent US9433573B2",
  "about": "“Microfabricated nanopore device for sustained release of therapeutic agent” (Delpor, Inc., priority 2001, dated 2016)",
  "key": {"[1]": {"parameters": "species or system rats", "details": "rat, in vivo, sc, 80 ug", "source_text": "(§1) Lysozyme, an enzyme with a molecular weight intermediate between that of glucose and albumin (MW 12,000 Daltons) was used to measure diffusion kinetics through nanopore membranes both in vitro and in vivo. Radiolabeled (^125-I) lysozyme was obtained from ICN Biochemicals. Unlabeled lysozyme was obtained from Sigma Chemical Corp. Radiolabeled lysozyme was admixed with unlabeled lysozyme and loaded into implants as described above for albumin. In vitro release rates for three size membranes are plotted in FIG. 8. Lysozyme release rates are zero-order for membranes pore sizes of 13 nm and 49 nm.\nBlood levels of lysozyme in groups of three rats given either a single subcutaneous bolus of 80 μg or after implantation of a nanopore implant device designed to release lysozyme at a rate of 17 μg/day are shown in FIG. 9."}, "[2]": {"test": "In vitro release of 125I-lysozyme from nanopore membrane implants", "source_text": "as §1"}},
  "data": [
    {"substance": "lysozyme", "values": [
      {"measurement": "apparent half-life in blood stream", "setting": "[1]", "result": "less than several days"},
      {"measurement": "lysozyme release rates (kinetics)", "setting": "[2]; membrane pore sizes of 13 nm and 49 nm, in vitro", "result": "zero-order"},
      {"measurement": "flux of lysozyme versus initial concentration", "setting": "[2]; pore size of 13 nm or less, in vitro (data not shown)", "result": "independent of initial concentration"}
    ]}
  ]
}
